# Like-named read-outs stand apart in the source and are kept apart here.
# Experiments:
# [1] = tested on: different rhinoviruses serotypes; assay: Protection of HeLa cells from rhinovirus-induced cytopathogenicity (MTT), all serotypes of Table 3; conditions: for EC50: Enterovirus, HeLa, 72 h, read-out: MIC, summary over the serotypes; for effectiveness and selectivity as rhinoviruses inhibiting agent / S.I.: Table 3; for S.I.: nine serotypes, HeLa cells
# rhinovirus serotype 14 = assay: Protection of HeLa cells from rhinovirus-induced cytopathogenicity (MTT), serotype 14; conditions: Enterovirus, 72 h, read-out: MIC, serotype 14
# in vitro [2] = conditions: human, hela cells
# rhinovirus serotype 89 = assay: Protection of HeLa cells from rhinovirus-induced cytopathogenicity (MTT), serotype 89; conditions: Enterovirus, 72 h, read-out: MIC, serotype 89
# rhinovirus serotype 22 = assay: Protection of HeLa cells from rhinovirus-induced cytopathogenicity (MTT), serotype 22; conditions: Enterovirus, 72 h, read-out: MIC, serotype 22
# HRV-14 [3] = assay: Viral plaque reduction, HRV-14 on HeLa cells; assay type: cell-based, human rhinovirus; conditions: for EC50: Rhinovirus B, HeLa cells, read-out: MIC, HRV-14; for S.I. (Selectivity Index): ratio MTL/MIC / S.I. (Selectivity Index): MTL/MIC ratio: HeLa MTL / HRV-14 MIC; for activity and selectivity to HRV-14 compared with the two previously known compounds: Table 1
# rhinovirus serotype 2 = assay: Protection of HeLa cells from rhinovirus-induced cytopathogenicity (MTT), serotype 2; conditions: Enterovirus, 72 h, read-out: MIC, serotype 2
# rhinovirus serotype 86 = assay: Protection of HeLa cells from rhinovirus-induced cytopathogenicity (MTT), serotype 86; conditions: Enterovirus, 72 h, read-out: MIC, serotype 86
# rhinovirus serotype 21 = assay: Protection of HeLa cells from rhinovirus-induced cytopathogenicity (MTT), serotype 21; conditions: Enterovirus, 72 h, read-out: MIC, serotype 21
# rhinovirus serotype 50 = assay: Protection of HeLa cells from rhinovirus-induced cytopathogenicity (MTT), serotype 50; conditions: Enterovirus, 72 h, read-out: MIC, serotype 50
# rhinovirus serotype 15 = assay: Protection of HeLa cells from rhinovirus-induced cytopathogenicity (MTT), serotype 15; conditions: Enterovirus, 72 h, read-out: MIC, serotype 15
# rhinovirus serotype 30 = assay: Protection of HeLa cells from rhinovirus-induced cytopathogenicity (MTT), serotype 30; conditions: Enterovirus, 72 h, read-out: MIC, serotype 30
# [4] = tested on: Herpes Simplex Virus type 1 (HSV-1); assay: Viral plaque reduction, HSV-1 on Vero cells; assay type: cell-based; conditions: Human alphaherpesvirus 1, Vero, read-out: MIC, HSV-1
# [5] = tested on: Poliomyelitis Virus type 1 (Sb-1); assay: microbe, parasite or virus in culture; assay type: cell-based; conditions: Vero, read-out: MIC, Sb-1
# [6] = tested on: Coxsackie Virus B1 (Coxs); assay: Viral plaque reduction, Coxs on Vero cells; assay type: cell-based; conditions: Table 1, 50% plaque reduction, 37° C, read-out: MIC, Coxs
# in vitro [7] = conditions: monkey, vero cells
# [8] = tested on: Vesicular Stomatitis Virus (VSV); assay: microbe, parasite or virus in culture; assay type: cell-based; conditions: Vero, read-out: MIC, VSV
# Virus Vaccinicum (VV) = assay: Viral plaque reduction, VV on Vero cells; assay type: cell-based; conditions: Table 1, 50% plaque reduction, 37° C, read-out: MIC, VV
# rhinoviruses = conditions: literature; interaction with proteins of the virus capsid; cited from earlier work
# HRV-14 [9] = conditions: Table 1; literature value; read-out: MIC, HRV-14 (comparison compounds); cited from earlier work
# [10] = Table 2, 50% reduction of HRV14 plaques
# [11] = HRV14, Table 1 and text, 50% plaque reduction, 33° C
molecule,measurement,setting,value
CCOC(=O)c1ccc(OCCCCC(=O)c2ccc(C)s2)cc1 [Compound 514],EC50,[1],630 nM
same,effectiveness and selectivity as rhinoviruses inhibiting agent,[1],the most effective and selective
same,S.I.,[1],> 917
same,EC50,rhinovirus serotype 14,1700 nM
same,MNTC,in vitro [2],> 578 µM
same,EC50,rhinovirus serotype 89,300 nM
same,EC50,rhinovirus serotype 22,1400 nM
same,EC50,HRV-14 [3]; [10],3400 nM
same,S.I. (Selectivity Index): ratio MTL/MIC,HRV-14 [3]; Table 2,> 170
same,EC50,rhinovirus serotype 2,500 nM
same,EC50,rhinovirus serotype 86,140 nM
same,EC50,rhinovirus serotype 21,100 nM
same,EC50,rhinovirus serotype 50,400 nM
same,EC50,rhinovirus serotype 15,900 nM
same,EC50,rhinovirus serotype 30,140 nM
Cn1cc(C(=O)CCCCOc2ccc(C(=O)O)cc2)cc1C=O [Compound 394],EC50,[4],> 380 µM
same,EC50,[5],> 380 µM
same,EC50,[6],> 380 µM
same,MNTC,in vitro [2],> 610 µM
same,EC50,HRV-14 [3]; [11],7000 nM
same,activity and selectivity to HRV-14 compared with the two previously known compounds,HRV-14 [3],"less effective, but even more selective to HRV-14"
same,S.I. (Selectivity Index): MTL/MIC ratio,HRV-14 [3]; Table 1 and text,> 87
same,MNTC,in vitro [7],380 µM
same,EC50,[8],> 380 µM
same,EC50,Virus Vaccinicum (VV),> 380 µM
Cc1ccc(C(=O)CCCCOc2ccc(C3=NCCO3)cc2)s1 [Compound 522],EC50,[1],2000 nM
same,S.I.,[1],> 145
same,EC50,rhinovirus serotype 14,300 nM
same,MNTC,in vitro [2],> 291 µM
same,EC50,rhinovirus serotype 89,300 nM
same,EC50,rhinovirus serotype 22,11600 nM
same,EC50,HRV-14 [3]; [10],2900 nM
same,S.I. (Selectivity Index): ratio MTL/MIC,HRV-14 [3]; Table 2,> 100
same,EC50,rhinovirus serotype 2,1100 nM
same,EC50,rhinovirus serotype 86,140 nM
same,EC50,rhinovirus serotype 21,1700 nM
same,EC50,rhinovirus serotype 50,1100 nM
same,EC50,rhinovirus serotype 15,300 nM
same,EC50,rhinovirus serotype 30,1400 nM
"CCCCCCCCCCCCCCOc1ccc(C(C)=O)o1 [RMI-15,731, 1-[5-(tetradecyloxy)-2-furanyl]ethanone]",inhibition of rhinoviruses,rhinoviruses,inhibit a wide range of rhinoviruses
Cn1cccc1C(=O)CCCCOc1ccc(C2=NCCO2)cc1 [Compound 414],EC50,[4],> 300 µM
same,EC50,[5],> 300 µM
same,EC50,[6],> 300 µM
same,cytotoxicity levels,HeLa cells,low cytotoxicity levels
same,MNTC,in vitro [2],> 610 µM
same,EC50,HRV-14 [3]; [11],800 nM
same,S.I. (Selectivity Index): MTL/MIC ratio,HRV-14 [3]; Table 1 and text,> 762
same,MNTC,in vitro [7],> 300 µM
same,EC50,[8],> 300 µM
same,EC50,Virus Vaccinicum (VV),> 300 µM
"4-ethoxy-2'-hydroxy-4', 6-dimethoxychalcone [RO 09-0410]",inhibition of rhinoviruses,rhinoviruses,inhibit a wide range of rhinoviruses
CCOC(=O)c1ccc(OCCCCC(=O)c2ccc(Cl)s2)cc1 [Compound 360],EC50,[4],> 190 µM
same,EC50,[5],80 µM
same,EC50,[1],760 nM
same,effectiveness and selectivity as rhinoviruses inhibiting agent,[1],the most effective and selective
same,S.I.,[1],> 717
same,EC50,rhinovirus serotype 14,2700 nM
same,EC50,[6],> 190 µM
same,cytotoxicity levels,HeLa cells,low cytotoxicity levels
same,MNTC,in vitro [2],> 545 µM
same,EC50,rhinovirus serotype 89,300 nM
same,EC50,rhinovirus serotype 22,1400 nM
same,EC50,HRV-14 [3]; [11],2000 nM
same,S.I. (Selectivity Index): MTL/MIC ratio,HRV-14 [3]; Table 1 and text,> 272
same,MNTC,in vitro [7],> 190 µM
same,EC50,[8],> 190 µM
same,EC50,rhinovirus serotype 2,100 nM
same,EC50,rhinovirus serotype 86,300 nM
same,EC50,rhinovirus serotype 50,400 nM
same,EC50,rhinovirus serotype 15,1600 nM
same,EC50,Virus Vaccinicum (VV),> 190 µM
same,EC50,rhinovirus serotype 30,50 nM
"CCOC(=O)c1ccc(OCCCCC(=O)c2cc(C=O)n(C)c2)cc1 [Compound 393, 4-[5-[4-(ethoxycarbonyl)phenoxy]pentanoyl]-1-methyl-1H-pyrrole-, -2-carboxaldeide]",EC50,[1],1400 nM
same,S.I.,[1],36
same,EC50,rhinovirus serotype 14,2000 nM
same,MNTC,in vitro [2],50 µM
same,EC50,rhinovirus serotype 89,200 nM
same,EC50,rhinovirus serotype 22,1100 nM
same,EC50,HRV-14 [3]; [10],1400 nM
same,S.I. (Selectivity Index): ratio MTL/MIC,HRV-14 [3]; Table 2,36
same,EC50,rhinovirus serotype 2,500 nM
same,EC50,rhinovirus serotype 86,140 nM
same,EC50,rhinovirus serotype 21,2200 nM
same,EC50,rhinovirus serotype 50,800 nM
same,EC50,rhinovirus serotype 15,2200 nM
same,EC50,rhinovirus serotype 30,1100 nM
Cn1cc(C(=O)CCCCOc2ccc(C3=NCCO3)cc2)cc1C=O [Compound 395],EC50,[4],> 280 µM
same,EC50,[5],> 280 µM
same,EC50,[6],> 280 µM
same,MNTC,in vitro [2],> 425 µM
same,EC50,HRV-14 [3]; [11],5000 nM
same,activity and selectivity to HRV-14 compared with the two previously known compounds,HRV-14 [3],"less effective, but even more selective to HRV-14"
same,S.I. (Selectivity Index): MTL/MIC ratio,HRV-14 [3]; Table 1 and text,> 85
same,MNTC,in vitro [7],> 280 µM
same,EC50,[8],> 280 µM
same,EC50,Virus Vaccinicum (VV),> 280 µM
O=C(CCCCOc1ccc(C2=NCCO2)cc1)c1ccc(Cl)s1 [Compound 366],EC50,[4],> 275 µM
same,EC50,[5],200 µM
same,EC50,[6],> 275 µM
same,cytotoxicity levels,HeLa cells,low cytotoxicity levels
same,MNTC,in vitro [2],> 410 µM
same,EC50,HRV-14 [3]; [11],50 nM
same,MNTC,in vitro [7],> 275 µM
same,EC50,[8],> 275 µM
same,EC50,Virus Vaccinicum (VV),> 275 µM
"Cc1csc(C(=O)CCCCOc2ccc(C3=NCCO3)cc2)c1 [Compound 529, 2-[5-[4-(4,5-Dihydro-2-oxazolyl)phenoxy]pentanoyl]-4-methylthiophene]",EC50,[1],4100 nM
same,S.I.,[1],71
same,EC50,rhinovirus serotype 14,1100 nM
same,MNTC,in vitro [2],291 µM
same,EC50,rhinovirus serotype 89,2900 nM
same,EC50,rhinovirus serotype 22,11600 nM
same,EC50,HRV-14 [3]; [10],6900 nM
same,S.I. (Selectivity Index): ratio MTL/MIC,HRV-14 [3]; Table 2,42
same,EC50,rhinovirus serotype 2,2900 nM
same,EC50,rhinovirus serotype 86,900 nM
same,EC50,rhinovirus serotype 21,5800 nM
same,EC50,rhinovirus serotype 50,4300 nM
same,EC50,rhinovirus serotype 15,200 nM
same,EC50,rhinovirus serotype 30,5800 nM
"Cc1cc(CCCCCCCOc2ccc(C3=NCCO3)cc2)on1 [WIN 51711, 5-{7-[4-(4,5-dihydro-2-oxazolyl)phenoxy]heptyl}-3-methyl-isoxazole, reference compound]",EC50,[1],1200 nM
same,S.I.,[1],23
same,EC50,rhinovirus serotype 14,600 nM
same,inhibition of rhinoviruses,rhinoviruses,inhibit a wide range of rhinoviruses
same,EC50,HRV-14 [9],400 nM
same,EC50,rhinovirus serotype 89,900 nM
same,EC50,rhinovirus serotype 22,3500 nM
same,S.I. (Selectivity Index): MTL/MIC ratio,HRV-14 [3]; Table 1 and text,45
same,S.I. (Selectivity Index): ratio MTL/MIC,HRV-14 [3]; Table 2,45
same,EC50,rhinovirus serotype 2,1700 nM
same,EC50,rhinovirus serotype 86,60 nM
same,EC50,rhinovirus serotype 21,600 nM
same,EC50,rhinovirus serotype 50,2000 nM
same,EC50,rhinovirus serotype 15,300 nM
same,EC50,rhinovirus serotype 30,1700 nM

# Reference: US5278184A, “Synthetic derivatives of pyrrole and pyrrolidine suitable for the therapy of infections caused by rhinoviruses” (Repla Chemical Ltd., priority 1991, dated 1994)
